# Read-outs that look alike come from different tables or passages of the source.
# Assays:
# [1] = Chemical stability in PBS buffer at pH 7.4 or 3.0, 37° C.; format: physicochemical; conditions: 1% Ethanol
# Procedure: A typical incubation contained 100 μM of the test compound prepared in PBS buffer (pH 7.4 or 3.0, 50 mM) with 1% Ethanol. The test compounds were incubated at 37° C. An aliquot from incubations was taken at various times and injected onto an RP-HPLC system as described above. Disappearance of the analyte was monitored over time.
# [2] = test system: normal human induced pluripotent stem cell (hiPSC) cardiomyocyte; conditions: for WT-Cessation Dose (μM): WT cardiomyocytes, cessation of beating
# [3] = test system: normal human induced pluripotent stem cell (hiPSC) cardiomyocyte; test: cells; conditions: read-out: WT-EC50 (μM) Prolongation
# [4] = test system: cardiomyocytes derived from hiPSCs from a LQTS3 patient; conditions: for LQT-EC50 (μM) Shortening: AP shortening; for LQT-3 shortening (in words): LQT-3 cells
# [5] = molecular target: Na+ channel currents in LQT3 patient-derived cardiomyocytes (Homo sapiens, UniProt Q14524); test: Whole cell patch clamp of Na+ currents (INaP, INaL) in hIPSC LQT3 patient-derived cardiomyocytes; format: cell-based
# Procedure: Patch clamp recordings from hIPSC LQT3 patient-derived cardiomyocytes for Na+ channel currents were recorded in response to computed voltage waveforms that simulated adult ventricular action potentials.
# The basis for LQT3 is a mutation in SCN5a that encodes the voltage-gated Na channel responsible for cardiac action potential. The Na current (INa) has peak and late components: the peak component initiates the action potential but as voltage rises, the channel normally inactivates. […] The LQT3 mutation impairs inactivation. The late component is then enlarged, resulting in action potential prolongation. […] Whole cell patch clamp electrophysiology experiments in LQTS3 cardiomyocytes helped determine the functional activity of drug candidates for inhibition of the late sodium current in the cells. Thus, we tested compounds for Peak (INaP) and Late (INaL) components. They were recorded in a “whole-cell” voltage-clamp mode configuration in response to voltage stimulation steps from −80 mV to +40 mV and their IC50 values determined (Table 1).
# [6] = Solubility (water; 10:30:60% DMSO:PEG400:water vehicle); format: physicochemical
# [7] = Metabolic stability in human liver microsomes; format: in vitro ADME; conditions: for half-life at 50 μM: liver microsomes, pH 7.4, liver microsomes + NADPH, species (human), read-out: metabolic stability in liver microsomes T1/2
# Procedure: (§1) A typical incubation contained rat, mouse, dog or human liver microsomes (0.4-0.5 mg of protein), 100 mM potassium phosphate buffer (pH7.4), 50 μM test compound, an NADPH-generating system consisting of 0.5 mM NADP^+, 0.5 mM glucose-6-phosphate, 1 IU/mL glucose-6-phosphate dehydrogenase, 1 mg/mL diethylenetriaminepentaaceticacid (DETAPAC), and 3 mM MgCl2 in a final incubation volume of 0.25 mL. […] After centrifugation at 3000 rpm for 5 min, the organic fraction was collected, the solvent was removed with a stream of argon and the residue was reconstituted in 125 μL of MeOH and 125 μL H2O, mixed thoroughly, centrifuged at 13,000 rpm for 5 min and analyzed by high performance liquid chromatography. Samples were run on a Hitachi D-7000 HPLC system using a L-7100 analytical pump, L-7400 UV-Visible variable wavelength detector, and L-7600 automatic sample injector. […] Disappearance of the analyte was monitored over time. A plot of the area under the curve for the normalized analyte versus time afforded the half-life values and kapp.
# [8] = Metabolism in human hepatic S9
# Procedure: as §1
# Microsomes contain CYPs and FMO metabolic enzymes. S9 contains soluble enzymes (i.e., aldehyde oxidase, MAO, etc.).
# [9] = test system: cardiomyocytes derived from hiPSCs from a LQTS3 patient; test: cells; conditions: Homo sapiens, Cardiomyocyte; for IC50: read-out: LQT-IC50 (uM)-Shortening
# [10] = molecular target: hERG potassium channel (IKr) (Homo sapiens, UniProt Q12809); test: Automated patch clamp, hERG (IKr) expressed in CHO cells; conditions: for IC50: hERG (IKr) IC50, CHO cells
# [11] = molecular target: Nav1.5 sodium channel, peak current (INaP) (Homo sapiens, UniProt Q14524, form not given); test: in vitro; conditions: Peak Na+ (INaP) IC50
# Procedure: (§2) This provided data to investigate the physiology and action of target compounds on individual ion channels. The assay used standardized protocols for culturing and conducting conventional whole cell recording that have been previously developed for both current and voltage-clamp to characterize action potentials using transfected cells. Briefly, the Nav1.5 sodium channel was transfected into HEK293 cells. […] Briefly, cells were plated on 0.1% gelatin-coated 35-mm plastic Petri dishes. […] Data was reported as IC50 values±STD (Table 1).
# [12] = molecular target: Nav1.5 sodium channel transfected into HEK293 cells (Homo sapiens, UniProt Q14524); test: Patch clamp electrophysiology, peak (INaP) and late (INaL) sodium current in transfected cells
# Procedure: as §2
# Male BALBc mice = test system: Male BALBc mice
# Excerpt: Male BALBc mice (20-22 g) were used throughout these studies. The animals were maintained in a temperature-controlled room with 12-hr periods of light and darkness and had continuous access to water and animal food. […] Groups contained 2-4 animals.
# [13] = pH 3, 100 μM in PBS, read-out: Half-Life @ pH 3.0 and 37° C.
# [14] = pH 7.4, 100 μM in PBS, read-out: Half-Life @ pH 7.4 and 37° C.
# [15] = whole-cell voltage clamp, steps -80 mV to +40 mV, table title says transfected CHO cells, read-out: IC50 for INaL
# [16] = whole-cell voltage clamp, steps -80 mV to +40 mV, table title says transfected CHO cells, read-out: IC50 for INaP
# [17] = 'No AP' wraps to 'No AP shortening'
# [18] = read-out: LQT-EC50 (μM) Shortening, LQT-3 cardiomyocytes, AP shortening
# Sequence of Na+ channel currents in LQT3 patient-derived cardiomyocytes (Q14524 whole entry F1473C, form open): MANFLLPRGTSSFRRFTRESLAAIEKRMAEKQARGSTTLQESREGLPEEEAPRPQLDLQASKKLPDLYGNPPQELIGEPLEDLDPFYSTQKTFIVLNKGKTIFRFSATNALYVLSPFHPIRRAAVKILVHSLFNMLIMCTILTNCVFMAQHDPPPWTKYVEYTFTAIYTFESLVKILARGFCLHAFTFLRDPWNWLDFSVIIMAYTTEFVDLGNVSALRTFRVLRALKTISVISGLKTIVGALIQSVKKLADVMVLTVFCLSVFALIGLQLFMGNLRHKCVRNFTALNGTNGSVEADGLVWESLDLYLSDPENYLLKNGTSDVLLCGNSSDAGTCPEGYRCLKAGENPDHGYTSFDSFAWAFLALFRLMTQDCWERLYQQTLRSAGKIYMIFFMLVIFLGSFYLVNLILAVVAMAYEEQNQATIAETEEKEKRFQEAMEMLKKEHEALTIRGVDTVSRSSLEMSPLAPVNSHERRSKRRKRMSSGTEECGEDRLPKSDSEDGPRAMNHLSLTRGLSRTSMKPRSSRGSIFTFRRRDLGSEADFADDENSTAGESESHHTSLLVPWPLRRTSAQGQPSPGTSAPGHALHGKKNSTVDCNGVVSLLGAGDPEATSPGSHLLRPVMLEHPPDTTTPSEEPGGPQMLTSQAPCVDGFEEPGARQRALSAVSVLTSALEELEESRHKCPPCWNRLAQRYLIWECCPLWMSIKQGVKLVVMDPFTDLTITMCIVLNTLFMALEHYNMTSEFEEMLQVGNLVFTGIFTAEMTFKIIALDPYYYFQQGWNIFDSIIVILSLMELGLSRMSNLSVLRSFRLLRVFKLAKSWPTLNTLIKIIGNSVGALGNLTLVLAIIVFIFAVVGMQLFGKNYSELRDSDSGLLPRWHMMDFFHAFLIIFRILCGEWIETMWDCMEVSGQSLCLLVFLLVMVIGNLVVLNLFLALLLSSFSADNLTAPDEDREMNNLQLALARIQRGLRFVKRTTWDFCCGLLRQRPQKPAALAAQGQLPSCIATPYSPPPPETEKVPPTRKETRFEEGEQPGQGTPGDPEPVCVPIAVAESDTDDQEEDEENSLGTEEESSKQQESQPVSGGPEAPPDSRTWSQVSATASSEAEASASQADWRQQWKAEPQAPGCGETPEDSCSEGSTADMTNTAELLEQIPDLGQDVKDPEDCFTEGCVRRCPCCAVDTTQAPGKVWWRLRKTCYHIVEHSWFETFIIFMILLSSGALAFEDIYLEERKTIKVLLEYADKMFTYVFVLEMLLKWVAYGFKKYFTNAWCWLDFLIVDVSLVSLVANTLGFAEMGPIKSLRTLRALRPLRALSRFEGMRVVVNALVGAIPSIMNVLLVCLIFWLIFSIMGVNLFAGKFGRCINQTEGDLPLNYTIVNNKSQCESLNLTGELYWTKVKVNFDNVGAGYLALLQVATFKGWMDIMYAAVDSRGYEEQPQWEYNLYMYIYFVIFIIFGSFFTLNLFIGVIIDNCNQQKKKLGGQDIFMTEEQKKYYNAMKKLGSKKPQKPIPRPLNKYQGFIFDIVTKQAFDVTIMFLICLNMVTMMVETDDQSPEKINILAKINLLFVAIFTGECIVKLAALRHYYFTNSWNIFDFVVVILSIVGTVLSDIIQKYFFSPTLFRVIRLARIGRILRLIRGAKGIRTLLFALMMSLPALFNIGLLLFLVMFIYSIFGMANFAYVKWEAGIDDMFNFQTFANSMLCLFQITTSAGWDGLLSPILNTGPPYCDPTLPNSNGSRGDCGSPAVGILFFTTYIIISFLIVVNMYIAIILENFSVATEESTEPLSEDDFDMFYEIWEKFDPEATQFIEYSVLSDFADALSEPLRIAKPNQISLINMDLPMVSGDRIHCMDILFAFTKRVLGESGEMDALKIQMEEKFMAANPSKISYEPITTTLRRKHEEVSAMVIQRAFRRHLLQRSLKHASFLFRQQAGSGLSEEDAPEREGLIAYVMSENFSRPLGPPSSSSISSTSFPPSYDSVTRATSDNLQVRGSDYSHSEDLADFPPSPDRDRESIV
# Sequence of hERG potassium channel (IKr) (Q12809 whole entry): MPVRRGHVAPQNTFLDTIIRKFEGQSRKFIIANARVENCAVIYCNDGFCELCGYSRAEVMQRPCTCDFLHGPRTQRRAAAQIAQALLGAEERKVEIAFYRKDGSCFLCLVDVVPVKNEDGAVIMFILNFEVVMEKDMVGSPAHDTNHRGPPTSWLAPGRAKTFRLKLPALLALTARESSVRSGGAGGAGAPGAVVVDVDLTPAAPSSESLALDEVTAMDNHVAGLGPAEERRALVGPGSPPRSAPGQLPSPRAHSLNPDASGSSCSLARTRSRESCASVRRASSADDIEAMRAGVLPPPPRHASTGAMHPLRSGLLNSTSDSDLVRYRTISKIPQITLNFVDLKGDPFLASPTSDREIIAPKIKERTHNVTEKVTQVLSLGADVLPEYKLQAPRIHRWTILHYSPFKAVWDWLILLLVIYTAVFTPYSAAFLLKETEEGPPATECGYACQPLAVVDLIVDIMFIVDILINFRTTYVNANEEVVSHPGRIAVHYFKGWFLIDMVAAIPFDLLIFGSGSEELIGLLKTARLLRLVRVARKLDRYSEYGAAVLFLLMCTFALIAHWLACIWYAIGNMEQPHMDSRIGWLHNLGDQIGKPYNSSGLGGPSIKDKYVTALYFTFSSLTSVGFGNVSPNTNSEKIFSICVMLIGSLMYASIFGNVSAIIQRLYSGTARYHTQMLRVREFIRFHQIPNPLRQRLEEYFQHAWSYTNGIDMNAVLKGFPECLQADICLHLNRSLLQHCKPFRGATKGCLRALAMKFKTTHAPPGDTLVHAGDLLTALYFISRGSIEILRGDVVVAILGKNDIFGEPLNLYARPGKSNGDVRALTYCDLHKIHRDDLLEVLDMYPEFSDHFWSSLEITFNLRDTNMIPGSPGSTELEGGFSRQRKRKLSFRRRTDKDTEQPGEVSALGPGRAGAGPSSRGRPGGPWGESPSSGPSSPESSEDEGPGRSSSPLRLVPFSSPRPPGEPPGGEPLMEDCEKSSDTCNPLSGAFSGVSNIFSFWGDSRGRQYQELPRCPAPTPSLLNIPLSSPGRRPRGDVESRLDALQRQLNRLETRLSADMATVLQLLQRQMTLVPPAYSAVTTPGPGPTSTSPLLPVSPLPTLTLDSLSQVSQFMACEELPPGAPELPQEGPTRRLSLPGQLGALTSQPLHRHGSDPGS
structure (smiles),measurement,setting,value
NC(COc1cc(C(F)(F)F)cc(C(F)(F)F)c1)c1ccccc1 (centres unmarked) [drawing 310],half-life at 100 μM,[1]; [13],> 30 days
same,half-life at 100 μM,[1]; [14],30 days
Cc1cc(C)c(OCC(N)c2ccccc2)cn1 (centres unmarked) [Compound 120],WT-Cessation Dose (μM),[2],No cessation of beating
same,EC50,[3],7.33 µM
same,LQT-Fold Shortening,[4]; LQT-3 cardiomyocytes,Does Not Shorten
same,LQT-Shortening Dose (μM),[4]; LQT-3 cardiomyocytes,Does Not Shorten
same,LQT-EC50 (μM) Shortening,[4]; LQT-3 cardiomyocytes,Does Not Shorten
NC(COc1ccccc1C(F)(F)F)c1ccccc1 (centres unmarked) [drawing 312],half-life at 100 μM,[1]; [13],> 15 days
same,half-life at 100 μM,[1]; [14],> 30 days
"Cc1ccccc1OCC(N)c1ccccc1 (centres unmarked) [Compound 25, 1-phenyl-2-(o-tolyloxy)ethanamine]",IC50,"[5]; LQT3 patient-derived cardiomyocytes, read-out: NaI channel Late (INaL) IC50",1.74 µM
same,IC50,[5]; [15],1.7 µM
same,IC50,[5]; [16],102 µM
same,solubility (in words),[6],good solubility
same,half-life at 50 μM,[7]; human,> 0.0417 days
same,metabolism in human liver S-9 judged by HPLC,[8],detectably metabolized
same,half-life at 100 μM,[1]; [14],> 30 days
"Cl.NC(COc1cc(C(F)(F)F)cc(C(F)(F)F)c1)c1ccccc1 (centres unmarked) [Compound 78, 2-(3,5-bis(trifluoromethyl)phenoxy)-1-phenylethan-1-amine]",WT-Prolong. Dose,[2]; 'No AP' wraps to 'No AP Prolong.',No AP
same,WT-Fold Prolongation,"[2]; APD, normal hiPSC cardiomyocytes",None
same,WT-Cess. Dose,[2]; deuterated vs non-deuterated,133 µM
same,WT-EC50 (μM)-Prolong.,"[2]; deuterated vs non-deuterated, 'No AP' wraps to 'No AP prolongation'",No AP
same,Cessation of Beating,[2]; normal hiPSC cardiomyocytes,133 µM
same,WT-Prolongation Dose,[2]; normal hiPSC cardiomyocytes,None
same,EC50,[9]; read-out: LQT-EC50 (μM)-Shortening,23.1 µM
same,IC50,[9],23.1 µM
same,IC50,[10]; Example 2,7.2 µM
same,DKr/NaL,"[10]; ratio, Example 2",7.0
same,DNaP/Kr,"[10]; ratio, Example 2",2.77
same,solubility (in words),[6],good solubility
same,half-life at 50 μM,[7]; human,> 0.0417 days
same,LQT-Fold Shortening,[4]; [17],1.208
same,LQT-Shortening Dose,[4]; [17],22 µM
same,LQT-Cessation Dose,[4]; LQT3 cardiomyocytes,66 µM
same,LQT-Fold Shortening,[4]; LQT3 cardiomyocytes,1.208
same,LQT-Cess. Dose,[4]; deuterated vs non-deuterated,66 µM
same,half-life at 100 μM,[1]; [14],> 30 days
same,IC50,[11],20 µM
same,DNap/NaL,[12]; ratio peak IC50/late IC50,19.4
same,DNap/NaL,"[12]; ratio peak/late IC50, Example 2",19.4
COCCNC(COc1cccnc1)c1ccccc1 (centres unmarked) [Compound 121],WT-Cessation Dose (μM),[2],No cessation of beating
same,EC50,[3],25.4 µM
same,EC50,[9]; [18],2.58 µM
same,LQT-Fold Shortening,[4]; LQT-3 cardiomyocytes,1.144
same,LQT-3 shortening (in words),[4],moderate shortening
Cc1ccncc1OCC(N)c1ccccc1 (centres unmarked) [Compound 112],WT-Cessation Dose (μM),[2],No cessation of beating
same,EC50,[3],19.4 µM
same,LQT-Fold Shortening,[4]; LQT-3 cardiomyocytes,Does Not Shorten
same,LQT-Shortening Dose (μM),[4]; LQT-3 cardiomyocytes,Does Not Shorten
same,LQT-EC50 (μM) Shortening,[4]; LQT-3 cardiomyocytes,Does Not Shorten
Cc1cc(C)cc(OCC(N)c2ccccc2)c1 (centres unmarked) [drawing 309],half-life at 100 μM,[1]; [13],> 30 days
same,half-life at 100 μM,[1]; [14],> 30 days
Cc1cncc(OCC(N)c2ccccc2)c1 (centres unmarked) [Compound 113],EC50,[3],7.24 µM
same,LQT-Fold Shortening,[4]; LQT-3 cardiomyocytes,Does Not Shorten
same,LQT-Shortening Dose (μM),[4]; LQT-3 cardiomyocytes,Does Not Shorten
same,LQT-EC50 (μM) Shortening,[4]; LQT-3 cardiomyocytes,Does Not Shorten
"Cc1cccnc1OCC(N)c1ccccc1 (centres unmarked) [Compound 94, 2-((3-methylpyridin-2-yl)oxy)-1-phenylethan-1-amine]",Cessation of Beating,[2]; normal hiPSC cardiomyocytes,None
same,WT-EAD Dose,[2]; normal hiPSC cardiomyocytes,133 µM
same,WT-Cessation Dose,[2]; pyridyl derivatives,No cessation of beatimg
same,EC50,[3],18.5 µM
same,EC50,"[9]; read-out: LQT-EC50 (μM) Shortening, pyridyl derivatives",12.8 µM
Cc1ccccc1OCC(N)c1ccccc1 (centres unmarked) [drawing 311],half-life at 100 μM,[1]; [13],> 15 days
NC(COc1cnccc1C(F)(F)F)c1ccccc1 (centres unmarked) [Compound 115],WT-Cessation Dose (μM),[2],No cessation of beating
same,EC50,[3],25.7 µM
same,LQT-Fold Shortening,[4]; LQT-3 cardiomyocytes,Does Not Shorten
same,LQT-Shortening Dose (μM),[4]; LQT-3 cardiomyocytes,Does Not Shorten
same,LQT-EC50 (μM) Shortening,[4]; LQT-3 cardiomyocytes,Does Not Shorten
Cc1cc(C)cc(OCC(N)c2ccccc2)c1.Cl (stereo in doubt) [(S)-70],"Liver Microsomes, remaining after 1 hr","[7]; human, microsomes, 1 h",>95% after 1 hr
same,"Liver S-9, remaining after 1 hr","[8]; human, s9, 1 h",>95% after 1 hr
same,Behavior Effect (S)-enantiomer,"Male BALBc mice; mice, 100 mg/kg",2/4 lethargic
same,behavioral effects at 100 mg/kg,"Male BALBc mice; mice, 100 mg/kg, enantiomers",Minor lethargy
"COCCNC(COc1cccc(C)c1C)c1ccccc1 (racemic) [Compound 36, 2-(2,3-dimethylphenoxy)-N-methoxy-ethyl-1-phenylethanamine]",Cessation of Beating,[2]; normal hiPSC cardiomyocytes,None
same,IC50,[9],5.73 µM
same,IC50,[5]; [15],0.38 µM
same,IC50,[5]; [16],51.8 µM
same,IC50,[10],27.6 µM
same,IC50,[10]; Example 2,27.6 µM
same,DKr/NaL,[10]; ratio hERG IC50/late Na IC50,36.9
same,DNaP/Kr,[10]; ratio peak Na IC50/hERG IC50,0.9
same,DKr/NaL,"[10]; ratio, Example 2",36.9
same,DNaP/Kr,"[10]; ratio, Example 2",0.93
same,solubility (in words),[6],good solubility
same,metabolism in human liver microsomes judged by HPLC,[7],metabolized
same,LQT-Cessation Dose,[4]; LQT3 cardiomyocytes,200 µM
same,LQT-Fold Shortening,[4]; LQT3 cardiomyocytes,1.508
same,metabolism in human liver S-9 judged by HPLC,[8],detectably metabolized
same,IC50,[11],25.8 µM
same,IC50,[12],0.747 µM
same,behavioral/toxic effects at 200 mg/kg,"Male BALBc mice; mouse, in vivo, ip, 200 mg/kg",slight lethargy
Cc1ccnc(C)c1OCC(N)c1ccccc1 (centres unmarked) [Compound 118],WT-Cessation Dose (μM),[2],No cessation of beating
same,EC50,[3],8.22 µM
same,LQT-Fold Shortening,[4]; LQT-3 cardiomyocytes,Does Not Shorten
same,LQT-Shortening Dose (μM),[4]; LQT-3 cardiomyocytes,Does Not Shorten
same,LQT-EC50 (μM) Shortening,[4]; LQT-3 cardiomyocytes,Does Not Shorten
NC(COc1ccccc1C(F)(F)F)c1ccc2ccccc2c1 (centres unmarked) [Compound 134],prolongation effects in wild type cells,[2]; wild type cells,some prolongation effects
same,EC50,[3],24.4 µM
same,EC50,[9]; [18],1.79 µM
same,LQT-Fold Shortening,[4]; LQT-3 cardiomyocytes,1.515
same,LQT-Cessation Dose (μM),"[4]; LQT-3 cardiomyocytes, cessation of beating",No cessation of beating
same,LQT-3 shortening (in words),[4],highly potent
same,cessation of beating (in words),"[4]; at the concentrations examined, cells not specified",did not induce cessation of beating
COCCNC(COc1ccncc1)c1ccccc1 (centres unmarked) [Compound 127],WT-Cessation Dose (μM),[2],No cessation of beating
same,EC50,[3],97.7 µM
same,LQT-Fold Shortening,[4]; LQT-3 cardiomyocytes,Does Not Shorten
same,LQT-Shortening Dose (μM),[4]; LQT-3 cardiomyocytes,Does Not Shorten
same,LQT-EC50 (μM) Shortening,[4]; LQT-3 cardiomyocytes,Does Not Shorten

# From US11492325B2, “Compounds as inhibitors of sodium channels” (Human BioMolecular Research Institute, priority 2016, dated 2022)
